Assay results: the CheMixHub viscosity set

Assay: xn = mol fraction of the nth substance listed

COC(C)=O + CC#N
303.15 K, 101.33 kPa
Conditions	viscosity [mPa·s]
x2 = 0.1087	0.3472
x2 = 0.1994	0.3482
x2 = 0.3009	0.3485
x2 = 0.4037	0.3481
x2 = 0.4994	0.3474
x2 = 0.5996	0.3461
x2 = 0.7019	0.3429
x2 = 0.7979	0.3376
x2 = 0.9006	0.3322

CCC(C)=O + Cc1ccc(C)cc1
307.35 K, 101.33 kPa
Conditions	viscosity [mPa·s]
x1 = 0.1273	0.515
x1 = 0.311	0.48
x1 = 0.3949	0.457
x1 = 0.5326	0.434
x1 = 0.5913	0.419
x1 = 0.6949	0.401
x1 = 0.7871	0.388

COC(C)=O + CCCCCCCC
298.15 K, 101.3 kPa
Conditions	viscosity [mPa·s]
x1 = 0.1268	0.4797
x1 = 0.2408	0.4518
x1 = 0.337	0.4361
x1 = 0.431	0.4213
x1 = 0.5066	0.4108
x1 = 0.5788	0.4021
x1 = 0.644	0.3953
x1 = 0.757	0.3849
x1 = 0.8528	0.3786

COCCOC + CCO
298.15 K, 101 kPa
Conditions	viscosity [mPa·s]
x1 = 0.05375	0.9565
x1 = 0.1133	0.8329
x1 = 0.1797	0.7369
x1 = 0.2542	0.663
x1 = 0.3383	0.5931
x1 = 0.434	0.5444
x1 = 0.544	0.4926
x1 = 0.8215	0.4356

c1ccc2ncccc2c1 + COc1ccccc1O
303.15 K, 101 kPa
Conditions	viscosity [mPa·s]
x1 = 0.1	5.95
x1 = 0.2	8.05
x1 = 0.3	10.04
x1 = 0.333	10.54
x1 = 0.36	10.97
x1 = 0.38	11.45
x1 = 0.4	11.65
x1 = 0.44	11.66
x1 = 0.46	11.57
x1 = 0.5	10.95
x1 = 0.6	8.98
x1 = 0.7	6.77
x1 = 0.8	4.87
x1 = 0.9	3.88

C1CCCCC1 + CCO
Conditions	viscosity [mPa·s]
293.15 K, 101.3 kPa, x1 = 0.0565	1.143
293.15 K, 101.3 kPa, x1 = 0.2674	1.028
293.15 K, 101.3 kPa, x1 = 0.3539	0.9953
293.15 K, 101.3 kPa, x1 = 0.4506	0.9698
293.15 K, 101.3 kPa, x1 = 0.5626	0.9436
293.15 K, 101.3 kPa, x1 = 0.6898	0.9184
293.15 K, 101.3 kPa, x1 = 0.8348	0.9099
298.15 K, 101 kPa, x2 = 0.0396	0.871
298.15 K, 101 kPa, x2 = 0.0718	0.867
298.15 K, 101 kPa, x2 = 0.1435	0.851
298.15 K, 101 kPa, x2 = 0.3225	0.839
298.15 K, 101 kPa, x2 = 0.4832	0.864
298.15 K, 101 kPa, x2 = 0.6269	0.901
298.15 K, 101 kPa, x2 = 0.7067	0.923
298.15 K, 101 kPa, x2 = 0.8205	0.967
298.15 K, 101.3 kPa, x1 = 0.0565	1.037
298.15 K, 101.3 kPa, x1 = 0.1188	0.9995
298.15 K, 101.3 kPa, x1 = 0.1894	0.9602
298.15 K, 101.3 kPa, x1 = 0.2674	0.9303
298.15 K, 101.3 kPa, x1 = 0.3539	0.9067
298.15 K, 101.3 kPa, x1 = 0.4506	0.8821
298.15 K, 101.3 kPa, x1 = 0.5626	0.8589
298.15 K, 101.3 kPa, x1 = 0.6898	0.8388
298.15 K, 101.3 kPa, x1 = 0.8348	0.8319
298.15 K, 101.33 kPa, x1 = 0.0999	1.003
298.15 K, 101.33 kPa, x1 = 0.1993	0.951
298.15 K, 101.33 kPa, x1 = 0.2995	0.923
298.15 K, 101.33 kPa, x1 = 0.3987	0.892
298.15 K, 101.33 kPa, x1 = 0.5003	0.872
298.15 K, 101.33 kPa, x1 = 0.55	0.861
298.15 K, 101.33 kPa, x1 = 0.6011	0.851
298.15 K, 101.33 kPa, x1 = 0.7014	0.831
298.15 K, 101.33 kPa, x1 = 0.803	0.826
298.15 K, 101.33 kPa, x1 = 0.9006	0.84
303.15 K, 101.3 kPa, x1 = 0.0565	0.947
303.15 K, 101.3 kPa, x1 = 0.1188	0.9133
303.15 K, 101.3 kPa, x1 = 0.1894	0.8784
303.15 K, 101.3 kPa, x1 = 0.2674	0.8522
303.15 K, 101.3 kPa, x1 = 0.3539	0.8288
303.15 K, 101.3 kPa, x1 = 0.4506	0.8084
303.15 K, 101.3 kPa, x1 = 0.5626	0.786
303.15 K, 101.3 kPa, x1 = 0.6898	0.7655
303.15 K, 101.3 kPa, x1 = 0.8348	0.7647
303.15 K, 101.33 kPa, x2 = 0.0952	0.7883
303.15 K, 101.33 kPa, x2 = 0.1976	0.7705
303.15 K, 101.33 kPa, x2 = 0.2988	0.7735
303.15 K, 101.33 kPa, x2 = 0.3894	0.7762
303.15 K, 101.33 kPa, x2 = 0.4879	0.7852
303.15 K, 101.33 kPa, x2 = 0.5929	0.8063
303.15 K, 101.33 kPa, x2 = 0.7828	0.8609
303.15 K, 101.33 kPa, x2 = 0.9018	0.921
308.15 K, 101 kPa, x2 = 0.0396	0.741
308.15 K, 101 kPa, x2 = 0.0718	0.729
308.15 K, 101 kPa, x2 = 0.1435	0.716
308.15 K, 101 kPa, x2 = 0.3225	0.707
308.15 K, 101 kPa, x2 = 0.4832	0.726
308.15 K, 101 kPa, x2 = 0.6269	0.752
308.15 K, 101 kPa, x2 = 0.7067	0.772
308.15 K, 101 kPa, x2 = 0.8205	0.807
308.15 K, 101 kPa, x2 = 0.8789	0.835
308.15 K, 101 kPa, x2 = 0.9548	0.875
308.15 K, 101.3 kPa, x1 = 0.0565	0.8683
308.15 K, 101.3 kPa, x1 = 0.1188	0.8383
308.15 K, 101.3 kPa, x1 = 0.1894	0.8039
308.15 K, 101.3 kPa, x1 = 0.2674	0.7793
308.15 K, 101.3 kPa, x1 = 0.3539	0.7578
308.15 K, 101.3 kPa, x1 = 0.4506	0.7384
308.15 K, 101.3 kPa, x1 = 0.5626	0.7191
308.15 K, 101.3 kPa, x1 = 0.6898	0.7052
308.15 K, 101.3 kPa, x1 = 0.8348	0.7051
318.15 K, 101 kPa, x2 = 0.0396	0.632
318.15 K, 101 kPa, x2 = 0.0718	0.627
318.15 K, 101 kPa, x2 = 0.1435	0.614
318.15 K, 101 kPa, x2 = 0.3225	0.601
318.15 K, 101 kPa, x2 = 0.4832	0.616
318.15 K, 101 kPa, x2 = 0.6269	0.634
318.15 K, 101 kPa, x2 = 0.7067	0.649
318.15 K, 101 kPa, x2 = 0.8205	0.68
318.15 K, 101 kPa, x2 = 0.8789	0.701
318.15 K, 101 kPa, x2 = 0.9548	0.736

CCCCCCCC(=O)OCC + CCCCCCCCCCCCCCCC
Conditions	viscosity [mPa·s]
295.04 K, 103 kPa, x2 = 0.5	2.176
298.65 K, 103 kPa, x2 = 0.25	1.72
312.63 K, 101 kPa, x2 = 0.5	1.583

C1CCCCC1 + CCCO
Conditions	viscosity [mPa·s]
298.15 K, 100 kPa, x2 = 0.0547	0.8988
298.15 K, 100 kPa, x2 = 0.1077	0.9091
298.15 K, 100 kPa, x2 = 0.1968	0.9202
298.15 K, 100 kPa, x2 = 0.3164	0.9358
298.15 K, 100 kPa, x2 = 0.4278	1.013
298.15 K, 100 kPa, x2 = 0.6293	1.243
298.15 K, 100 kPa, x2 = 0.8064	1.502
298.15 K, 100 kPa, x2 = 0.8873	1.626
298.15 K, 101 kPa, x2 = 0.0166	0.873
298.15 K, 101 kPa, x2 = 0.0647	0.865
298.15 K, 101 kPa, x2 = 0.1219	0.867
298.15 K, 101 kPa, x2 = 0.2231	0.889
298.15 K, 101 kPa, x2 = 0.3207	0.946
298.15 K, 101 kPa, x2 = 0.3805	0.994
298.15 K, 101 kPa, x2 = 0.7039	1.371
298.15 K, 101 kPa, x2 = 0.8023	1.529
303.15 K, 101 kPa, x2 = 0.6491	1.1
303.15 K, 101.33 kPa, x2 = 0.109	0.8411
303.15 K, 101.33 kPa, x2 = 0.208	0.8728
303.15 K, 101.33 kPa, x2 = 0.3385	0.9327
303.15 K, 101.33 kPa, x2 = 0.4215	0.9852
303.15 K, 101.33 kPa, x2 = 0.6115	1.141
303.15 K, 101.33 kPa, x2 = 0.708	1.237
303.15 K, 101.33 kPa, x2 = 0.8094	1.37
308.15 K, 100 kPa, x2 = 0.0547	0.718
308.15 K, 100 kPa, x2 = 0.1077	0.7248
308.15 K, 100 kPa, x2 = 0.1968	0.7355
308.15 K, 100 kPa, x2 = 0.3164	0.7941
308.15 K, 100 kPa, x2 = 0.4278	0.8335
308.15 K, 100 kPa, x2 = 0.5319	0.8971
308.15 K, 100 kPa, x2 = 0.6293	0.9922
308.15 K, 100 kPa, x2 = 0.7206	1.095
308.15 K, 100 kPa, x2 = 0.8064	1.203
308.15 K, 100 kPa, x2 = 0.8873	1.317
308.15 K, 100 kPa, x2 = 0.9635	1.491
308.15 K, 101 kPa, x2 = 0.0166	0.736
308.15 K, 101 kPa, x2 = 0.0647	0.73
308.15 K, 101 kPa, x2 = 0.1219	0.732
308.15 K, 101 kPa, x2 = 0.2231	0.746
308.15 K, 101 kPa, x2 = 0.3207	0.782
308.15 K, 101 kPa, x2 = 0.3805	0.818
308.15 K, 101 kPa, x2 = 0.4203	0.845
308.15 K, 101 kPa, x2 = 0.6491	1.022
308.15 K, 101 kPa, x2 = 0.7039	1.099
308.15 K, 101 kPa, x2 = 0.8023	1.218
313.15 K, 101 kPa, x2 = 0.6491	0.9392
318.15 K, 101 kPa, x2 = 0.0166	0.634
318.15 K, 101 kPa, x2 = 0.0647	0.626
318.15 K, 101 kPa, x2 = 0.1219	0.624
318.15 K, 101 kPa, x2 = 0.2231	0.634
318.15 K, 101 kPa, x2 = 0.3207	0.66
318.15 K, 101 kPa, x2 = 0.3805	0.683
318.15 K, 101 kPa, x2 = 0.4203	0.706
318.15 K, 101 kPa, x2 = 0.7039	0.896
318.15 K, 101 kPa, x2 = 0.8023	0.992

CC(N)C(=O)[O-].CCCCn1cc[n+](C)c1 + O
Conditions	viscosity [mPa·s]
318.15 K, 100.3 kPa, x1 = 0.01781	1.114

COC(C)=O + Cc1ccc(C)cc1
viscosity [mPa·s], 101 kPa
Conditions	298.15 K	308.15 K
x1 = 0.0478	0.592	0.521
x1 = 0.1516	0.548	0.49
x1 = 0.2496	0.514	0.465
x1 = 0.3526	0.483	0.442
x1 = 0.4453	0.46	0.423
x1 = 0.492	0.449	0.415
x1 = 0.5525	0.437	0.404
x1 = 0.6515	0.42	0.389
x1 = 0.7506	0.406	0.376
x1 = 0.8511	0.395	0.365
x1 = 0.9428	0.388	0.356
